The subject of one data set is Ctenocephalides felis. The data set can be described thus: Ctenocephalides felis oral test. The note with it: 48 h, 100 ppm in citrated cattle blood, unfed adult cat fleas, after 2 days, read-out: efficacy (kill in %). The data set is classed as in vivo. Here is the method:
Ctenocephalides felis—Oral Test [table] To produce a suitable active compound preparation, 10 mg of active compound are mixed with 0.5 ml of dimethyl sulfoxide. Dilution with citrated cattle blood gives the desired concentration. About 20 unfed adult cat fleas (Ctenocephalides felis) are placed into a chamber which is closed at the top and bottom with gauze. A metal cylinder whose bottom end is closed with parafilm is placed onto the chamber. The cylinder contains the blood/active compound formulation, which can be imbibed by the fleas through the parafilm membrane. After 2 days, the kill in % is determined. 100% means that all of the fleas have been killed; 0% means that none of the fleas have been killed.

Data set [1] relates to Myzus persicae. Description: Myzus persicae oral test. The data set is classed as in vivo. The note with it: 120 h, mixed population of green peach aphids, after 5 days, read-out: efficacy. Here is the method: Myzus persicae—Oral Test [table] To produce a suitable preparation of active compound, 1 part by weight of active compound is dissolved using the specified parts by weight of solvent and made up with water until the desired concentration is attained. 50 μl of the active ingredient formulation are transferred into microtitre plates and made up to a final volume of 200 μl with 150 μl of IPL41 insect medium (33%+15% sugar). Subsequently, the plates are sealed with parafilm, which a mixed population of green peach aphids (Myzus persicae) within a second microtitre plate is able to puncture and imbibe the solution through. After 5 days, the efficacy in % is determined. 100% means that all the aphids have been killed; 0% means that no aphids have been killed.

Data set [2] concerns Myzus persicae. Description: Myzus persicae spray test. The following applies: foliar, 120 h, sprayed Chinese cabbage leaf discs, all stages of the green peach aphid, after 5 days, read-out: efficacy. The data set is classed as in vivo. Here is the method: Myzus persicae—Spray Test [table] To produce a suitable active compound preparation, 1 part by weight of active compound is dissolved using the stated parts by weight of solvent and made up with water containing an emulsifier concentration of 1000 ppm until the desired concentration is attained. To produce further test concentrations, the formulation is diluted with emulsifier-containing water. Discs of Chinese cabbage leaves (Brassica pekinensis) infested by all stages of the green peach aphid (Myzus persicae) are sprayed with an active compound formulation of the desired concentration. After 5 days, the efficacy in % is determined. 100% means that all the aphids have been killed; 0% means that no aphids have been killed.

The next data set has as its system Phaedon cochleariae. The data set can be described thus: Phaedon cochleariae spray test. The data set is classed as in vivo. The following applies: 100 g/ha, sprayed Chinese cabbage leaf discs, mustard beetle larvae, after 7 days. The method, then: Phaedon cochleariae—Spray Test
(§1) To produce a suitable active compound preparation, 1 part by weight of active compound is dissolved using the stated parts by weight of solvent and made up with water containing an emulsifier concentration of 1000 ppm until the desired concentration is attained. To produce further test concentrations, the formulation is diluted with emulsifier-containing water.
Discs of Chinese cabbage leaves (Brassica pekinensis) are sprayed with an active compound formulation of the desired concentration and, after drying, populated with larvae of the mustard beetle (Phaedon cochleariae).
After 7 days, the efficacy in % is determined. 100% means that all the beetle larvae have been killed; 0% means that no beetle larvae have been killed.

The next data set has as its system Spodoptera frugiperda. The data set can be described thus: Spodoptera frugiperda spray test. The data set is classed as in vivo. The note with it: foliar, 168 h, sprayed maize leaf discs, fall armyworm caterpillars, after 7 days, read-out: efficacy. Here is the method: Spodoptera frugiperda—Spray Test [table] To produce a suitable active compound preparation, 1 part by weight of active compound is dissolved using the stated parts by weight of solvent and made up with water containing an emulsifier concentration of 1000 ppm until the desired concentration is attained. To produce further test concentrations, the formulation is diluted with emulsifier-containing water. Leaf discs of maize (Zea mays) are sprayed with an active compound formulation of the desired concentration and, after drying, populated with caterpillars of the fall armyworm (Spodoptera frugiperda). After 7 days, the efficacy in % is determined. 100% means that all the caterpillars have been killed; 0% means that no caterpillar has been killed.

Data set [3] can be described thus: log P by HPLC on reversed-phase column (C18), EEC Directive 79/831 Annex V.A8. The data set is classed as physicochemical. Here is the method:
The log P values were determined according to EEC Directive 79/831 Annex V.A8 by HPLC (high-performance liquid chromatography) on a reversed-phase column (C18) using the following methods: ^[a] […] Calibration was carried out using a homologous series of straight-chain alkan-2-ones (having 3 to 16 carbon atoms) with known log P values. The values between successive alkanones are determined by linear regression.

Another data set concerns Boophilus microplus. Description: Boophilus microplus injection test. The data set is classed as in vivo. The following applies: 20 μg/animal, injection into engorged adult female cattle ticks, assessed after 7 days by laying of fertile eggs. Here is the method:
Boophilus microplus—Injection Test [table] To produce a suitable active compound preparation, 10 mg of active compound are mixed with 0.5 ml of solvent and the concentrate is diluted to the desired concentration with solvent. 1 μl of the active compound solution is injected into the abdomen of 5 engorged adult female cattle ticks (Boophilus microplus). The animals are transferred into dishes and kept in a climate-controlled room. Efficacy is assessed after 7 days by laying of fertile eggs. Eggs which are not visibly fertile are stored in a climate-controlled cabinet until the larvae hatch after about 42 days. An efficacy of 100% means that none of the ticks has laid any fertile eggs; 0% means that all the eggs are fertile.

The test system of the next data set is Tetranychus urticae. Description: Tetranychus urticae spray test, OP-resistant. The data set is classed as in vivo. The note with it: 20 g/ha, sprayed bean leaf discs, all stages of the greenhouse red spider mite, after 6 days. Here is the method: Tetranychus urticae—Spray Test, OP-Resistant
as §1
Discs of bean leaves (Phaseolus vulgaris) infested with all stages of the greenhouse red spider mite (Tetranychus urticae) are sprayed with an active compound formulation of the desired concentration.
After 6 days, the efficacy in % is determined. 100% means that all the spider mites have been killed; 0% means that no spider mites have been killed.

[4] abbreviates: LC-UV in the acidic range, formic acid in water / acetonitrile, read-out: log P[acidic].
Setting [5] is: LC-UV in the neutral range, ammonium carbonate in water / acetonitrile, read-out: log P[neutral].

The values below come from US11926623B2, “Heterocycle derivatives as pesticides” (Bayer Aktiengesellschaft, priority 2018, dated 2024).

Where two headings read alike, the source gives them in different places.

For `CCS(=O)(=O)c1c(-c2nc3cc(C(F)(F)F)cnc3n2C)nc(-c2ccc(C3CC3)nc2)n1C` [Example I-14], the pest or weed control at 100 ppm with Ctenocephalides felis is 90%. For the same molecule, in the data set with Myzus persicae [1], the pest or weed control at 4 ppm was 100%. For the same molecule, the values for the pest or weed control at 100 g/ha in the data set on Myzus persicae [2] and in the data set with Spodoptera frugiperda were 90% and 100%, respectively. Also, the efficacy in the data set with Phaedon cochleariae turned out to be 100%.
Turning to `CCS(=O)(=O)c1c(-c2nc3cc(C(F)(F)F)cnc3n2C)nc(-c2ccc(C3(C#N)CC3)cc2)n1C` [Example I-5, 1-(4-{5-(Ethylsulfonyl)-1-methyl-4-[3-methyl-6-(trifluoromethyl)-3H-imidazo[4,5-b]pyridin-2-yl]-1H-imidazol-2-yl}phenyl)cyclopropanecarbonitrile], in the data set on Ctenocephalides felis, the pest or weed control at 100 ppm turned out to be 100%. The pest or weed control at 4 ppm with Myzus persicae [1] is 100%. The pest or weed control at 100 g/ha with Myzus persicae [2] and with Spodoptera frugiperda was 100% throughout. In addition, the efficacy with Phaedon cochleariae was 100%. For the same molecule, the chromatographic logP amounted to 3.14 in data set [3] (setting [4]) and 3.07 in data set [3] (setting [5]).
Take `CCS(=O)(=O)c1c(-c2nc3cc(C(F)(F)F)cnc3n2C)nc(-n2ccc(C3CC3)n2)n1C` [Example I-9, 2-[2-(3-Cyclopropyl-1H-pyrazol-1-yl)-5-(ethylsulfonyl)-1-methyl-1H-imidazol-4-yl]-3-methyl-6-(trifluoromethyl)-3H-imidazo[4,5-b]pyridine]: the pest or weed control at 100 ppm in the data set with Ctenocephalides felis is 90%. Moreover, the pest or weed control at 4 ppm with Myzus persicae [1] was 100%. The pest or weed control at 100 g/ha in the data set with Myzus persicae [2] and in the data set on Spodoptera frugiperda was 100% throughout. In addition, in the data set with Phaedon cochleariae, the efficacy is 100%. The chromatographic logP was found to be 3.46 in data set [3] (setting [4]) and 3.36 in data set [3] (setting [5]).
Consider `CCS(=O)(=O)c1c(-c2nc3cc(C(F)(F)F)cnc3n2C)nc(-c2cnn(C3CC3)c2)n1C` [Example I-6], for which the efficacy with Boophilus microplus was found to be 95%; in the data set on Phaedon cochleariae, 100%. Besides, the pest or weed control at 100 ppm with Ctenocephalides felis was determined as 100%. Also, the pest or weed control at 4 ppm in the data set on Myzus persicae [1] is 100%. In addition, the pest or weed control at 100 g/ha in the data set with Myzus persicae [2] and with Spodoptera frugiperda was 100% throughout.
With `CCS(=O)(=O)c1c(-c2nc3cc(C(F)(F)F)cnc3n2C)nc(-n2cc(Br)c(C3CC3)n2)n1C` [Example I-10], the results for the efficacy in the data set on Boophilus microplus, in the data set with Phaedon cochleariae and with Tetranychus urticae were 90%, 100% and 90%, respectively. In addition, the pest or weed control at 100 ppm in the data set with Ctenocephalides felis came to 90%. In the data set with Myzus persicae [1], the pest or weed control at 4 ppm is 100%. Also, the pest or weed control at 100 g/ha with Myzus persicae [2] worked out at 90%; with Spodoptera frugiperda, 100%.
